Broadly, the pIC50 is the negative decadic logarithm of the IC50, by convention in mol/L.

pIC50: −log10 of the molar value. Ends that are not written are not given here.

We go through three substances from paper PMC11345766, “Computational Design of Pore-Forming Peptides with Potent Antimicrobial and Anticancer Activities” (Journal of Medicinal Chemistry, 2024).

The subject of assay [1] is MOLM-13, MEC-1 and SU-DHL-4 cancer cell lines. As to conditions: 24 h. The protocol: Anticancer activity of peptides against acute myeloid leukemia MOLM-13, chronic lymphocytic leukemia MEC-1, and diffuse large B-cell lymphoma SU-DHL-4 cell lines was tested using a WST cell viability assay. Cells were cultured in 75 cm^2 culture flasks at 37 °C in 5% CO2 according to the DSMZ recommendations before the start of the experiment. Then, the cells were seeded into 96-well plates in quadruplicate at 2.5 × 10^4 cells/well for SU-DHL-4, and 5 × 10^4 cells/well for MEC-1 and MOLM-13. Cells were treated with either peptides or PBS alone (negative control) for 24–72 h at 37 °C in 5% CO2. After incubation, cell viability was measured by WST-1 (Roche) according to the manufacturer’s instructions using Tecan microplate reader Infinite M200 PRO Plex and expressed as percentage compared to control.

Assay [2] relates to HL-60, K-562, MCF-7 and HCT-116 cells. The assay is described as follows: Viability by flow cytometry DiOC6/7AAD staining, effect of pH and media. It counts as cell-based, human. Conditions: 10 μM, 1 h; RPMI, DMEM, PBS at pH 8, 7, 6 and ∼7.6. How it is done: To investigate the effect of pH and media on anticancer activity, we further tested the peptides against four cell lines, HL-60, K-562, and MCF-7, and the colon cancer cells HCT-116, cultured in three different media, namely, RPMI, DMEM, and PBS, each adjusted to three different pH values 8, 7, and 6, and additionally one case without pH adjustment (∼7.6) (Figure 6c). To avoid pH changes due to the natural buffering of the CO2-bicarbonate system used in cell culture, the peptides were tested at a concentration of 10 μM for only 1 h, as the cell lysis effect was already apparent within 30 min of exposure (Figure S9d).
Effects of pH and culture medium on the anticancer activity of peptides against acute myeloid leukemia HL-60, chronic myeloid leukemia K-562, breast adenocarcinoma MCF-7, and colon cancer cells HCT-116 cultured in three different media RPMI (#21875034, Gibco), DMEM (#LM-D1110/500, Biosera), and PBS adjusted to three different pH values 8, 7, and 6, and a medium without pH adjustment (∼7.6), were tested using flow cytometry DiOC6/7AAD (3,3-dihexyloxacarbocyanine iodide/7-amino-actinomycin D) staining assay, as described previously.[102] Media pH was adjusted twice, i.e., 1 day before the experiment and immediately before the experiment. Medium was supplemented with 10% heat-inactivated FBS, glutamine, sodium pyruvate, and antibiotics (100 U/mL penicillin and 100 μg/mL streptomycin). […] To determine cell viability, cells were incubated with DiOC6 (Thermo Fisher Scientific) and 7AAD (Thermo Fisher Scientific) for 15 min at 37 °C and cell viability was measured using a BriCyte E6 flow cytometer (Mindray); viable cells were considered as DiOC6-positive and 7AAD-negative.
The effect of pH on peptide activity in cancer cells was evaluated by the multiway ANOVA followed by Tukey post hoc test. Regarding the comparison of the effect of the medium, we analyzed the data from Figure 6c by comparing RPMI medium and DMEM of the same pH, and statistical significance was assessed using the multiway ANOVA followed by Tukey post hoc test. […]

The test system of assay [3] is A. baumannii (NCTC 13301). Put plainly: Murine excisional dorsal wound infection model. The format is in vivo, mouse. As to conditions: for Survival: day 3 postinfection. How it is done: To investigate wound-healing applications, two peptides (LP1 and LP18) were tested in a murine wound infection model.[57] Immunosuppressed mice were infected with 5 × 10^4 cells per mL of A. baumannii (NCTC 13301) at the excised dorsal wound. The peptides at 1000 times the MICs (∼10 mg/kg) were applied directly to the wound by puncturing the dressing with a syringe once a day for 7 days. After removal of the dressing, necrosis of the epidermal tissue at the wound edges and wound expansion were observed. These conditions were reduced in the LP1-treated group, followed by the LP18-treated, PBS-treated, and untreated groups (Figure S6a,b). Contractile wound healing appeared to be higher in the LP1-treated group compared to the other groups. After 20 days, LP1-treated wounds were either completely closed or had less than 10 mm^2 of overlying serocellular crust, whereas the other wounds had larger and more inflamed serocellular crusts.
Eight-to-ten-week-old female Balb/c mice (obtained from Envigo, Netherlands) were subjected to immunosuppression induction by two intraperitoneal doses of 150 and 100 mg/kg cyclophosphamide on days −4 and −1, respectively, before wounding. On day 0 of wounding, mice were anesthetized with isoflurane and the dorsal region was shaved and scrubbed with iodine solution. A full-thickness skin defect was created over the thoracic spine using a 6 mm disposable skin biopsy punch (KAI Industries Co., Ltd., Japan). Infection was established by applying 25 μL of A. baumannii NCTC 13301 (5 × 10^4 CFU/mL) applied directly to the wound and allowed to absorb for 2 min. Wound was covered with a transparent sterile dressing (Tegaderm, Deutschland GmbH, Germany) and secured with tissue adhesive (Surgibond, SMI AG, Belgium). Afterward, mice received an intramuscular injection of buprenorphine (0.05 mg/kg). […] From 10^–3, 10^–5, and 10^–7 dilutions, 100 μL of the sample was collected three times, incubated on MacConkey agar plates (Trios, Czech Republic), and analyzed for viable cell counts. […]

With “H-HHHHLKKILKKLFQFINQLDNQLQDIHHHH-OH [LP40]”, the pIC50 in assay [1] was 4.70 to 6.00. In addition, the “Activity against cancer cells (cell viability) as a function of pH and medium” value in assay [2] is on record as “pH-dependent activity”.
In assay [3], “KKKKLKKILKKLFQFINQLDNQLQDIKKKK-NH2 [LP18]” had a Survival of 100%.
For “KKKKLKKILKKLFQFINQLDNQLQDIKQNK-NH2 [LP1]”, in assay [3], the Survival stood at 100%. Also, the “Overlying serocellular crust of wound” value in assay [3] (topical, 1000 times the MIC (∼10 mg/kg) once a day for 7 days, after 20 days) is recorded as “less than 10 mm^2”. This substance gave a pIC50 in assay [1] greater than 5.00. Besides, the “Activity against cancer cells (cell viability) as a function of pH and medium” value in assay [2] was “pH-dependent activity”.
